The values that follow are results of earlier work, collected in patent US6515019B2, “Methods of providing symptomatic and prophylactic treatment for medical and neurological conditions” (priority 1996, dated 2003).

For data set [1] the following is noted: patients on felbamate monotherapy (Faught E., Neurology 43:688-692, 1993).
The conditions of data set [2]: add-on therapy in partial epilepsy in children (Carmant J., Pediatr 125:481-486, 1994).
Another data set relates to neuronal cell death. Particulars: administered post-hoc; animal models of ischemia (Wasterlain 1993; Shuaib 1996; Wasterlain 1996).

Structures are written as SMILES.

On to `NC(=O)OCC(COC(N)=O)c1ccccc1` [Felbamate, 2-phenyl-1,3-propanediol dicarbamate], for which the Weight loss in data set [1] is listed as 4-5%. For the same compound, the weight loss course entry in data set [2] is “transient and returned to normal after twenty weeks”. The “prevention of neuronal cell death” value in the data set on neuronal cell death is reported as “effective in preventing neuronal cell death”.
